The text below walks through data of patent US20250134790A1, “ANTIMICROBIAL COMPOSITIONS” (Firmenich SA, priority 2021, published 2025).

Read-outs that look alike come from different tables or passages of the source.

In this assay the test system is Escherichia coli ATCC 10536. The assay can be described thus: Robotic bacteria contact time (BCT) test of perfume ingredients in surfactant bases (EN-1276 based). The class given is cell-based. The following applies: contact time 45 seconds; for log reduction at 1 % / log reduction at 0.5 %: Escherichia coli, ATCC10536, 45 s; for log reduction at 1 % / Log reduction: surfactant base B, perfume ingredient 1% wt; for log reduction at 0.5 %: surfactant base A, perfume ingredient 0.5 % wt. As to the method: a. Preparation of Test Samples
Test samples were prepared by mixing perfume ingredients with the surfactant bases and vigorously stirred for 24 hrs. Samples with transparent appearance were selected for antimicrobial testing.
b. Measurement of Antimicrobial Efficacy of Fragrance Materials in Surfactant Systems
Preparation of screening plate and dilution plate: Aliquots (270 μl) of compositions were dispensed into the wells of a 96-well microtiter plate (MTP) along two columns (B1-H1, and B7-H7), and 270 μl of MilliQ water was added to well A1 and A7 as the control samples. This MTP was labelled as the “Screening plate”. In another MTP, labelled as the “Dilution plate”, 270 μL of Dey-Engley (D/E) neutralizing solution was added to column 1 and column 7. 270 μl of tryptone diluent solution was added to columns 2-6 and columns 8-12 of the Dilution MTP by a Hamilton robotic liquid handling station.
BCT test & neutralization & dilution: Bacterial stock (30 μl) was then added to columns 1 of the ‘Screening plate’ and mixed by a Hamilton robotic liquid handling station. After a contact time of 45 seconds, 30 μl of the mixtures in column 1 were transferred into the corresponding wells of column 1 of the ‘Dilution plate’. After neutralizing for 5 minutes in the D/E neutralizing solution, 30 μl of the neutralized mixtures were transferred from column 1 to column 2 of the Dilution MTP and mixed, followed by transferring 30μl of the mixtures from column 2 into column 3. This process was repeated serially diluting the bacteria suspensions across the plate to column 6. Bacterial stock (30 μl) was then added to columns 7 of the ‘Screening plate’ and mixed by a Hamilton robotic liquid handling station. After a contact time of 45 seconds, 30 μl of the mixtures in column 7 were transferred into the corresponding wells of column 7 of the ‘Dilution plate’. After neutralizing for 5 minutes in the D/E neutralizing solution, 30 μl of the mixtures were transferred from column 7 to column 8 of the Dilution MTP and mixed, followed by transferring further 30μl mixtures from column 8 into column 9. This process was repeated serially diluting the bacteria suspensions across the plate to column 12.
Plating: 30 μl volumes from each well in the Dilution MTP were transferred onto four Tryptone Soya Agar (TSA) plates. The TSA plates were allowed to stand for about two hours so that the 30 μl inocula spots could dry and the plates were then inverted and incubated overnight at 37° C. for 24 hours. After incubation, colonies were counted.
Calculating log reduction: Select the dilutions with colony counts, and calculate the viable cell counts (CFU/mL) of mixture in ‘Screening plate’, and log reduction against the control MilliQ sample was calculated.

The mark [1] stands for this setting: no SCS (/), read-out: Log reduction.
The mark [2] stands for this setting: sodium cumene sulfonate (SCS) 3.00 % wt, read-out: Log reduction.
Setting [3] is: sodium salicylate 3.00, read-out: Log reduction.
Where [4] appears, read: sodium cumene sulfonate (SCS) 3.00 % wt.

In the case of `CC(C)=CCCC(C)CC#N` (centres unmarked) [3,7-dimethyl-6-octenenitrile], the log reduction at 1 % runs as follows: under setting [1], 0.1; under setting [2], greater than 5; under setting [3], greater than 5.
Turning to “cyclopropylmethyl (3Z)-3-hexenoate OR cyclopropylmethyl (3E)-3-hexenoate”, the Log reduction by setting is: (no SCS (/)) 0.1; under setting [4], greater than 5; (sodium salicylate 3.00) greater than 5.
As for `C=CC(C)(O)CCCC(C)C` (centres unmarked) [3,7-dimethyl-1-octen-3-ol], the log reduction at 1 % under setting [1] is -0.1, the log reduction at 1 % under setting [2] was greater than 5 and the log reduction at 1 % under setting [3] is greater than 5.
Turning to `CCCC=C1OC(=O)c2ccccc21` [3-butylidene-1-benzo[C] furanone], the log reduction at 1 % was 0.2 (no SCS (/)) and greater than 5 under setting [4]. For the same compound, for the setting “sodium salicylate 3.00”, the Log reduction result is “Insoluble”.
As to `CCCCCCCC=O` [Octanal, octanal], the Log reduction result (no SCS (/)) is “Insoluble”, the Log reduction entry under setting [4] was “Insoluble” and the Log reduction result (sodium salicylate 3.00) is “Insoluble”.
In the case of `CC(=CC=O)CCC(C)=C(C)C` [3,6,7-trimethyl-2,6-octadienal], the log reduction at 1 % is 3.3 under setting [1] and greater than 5 under setting [2]. For the same compound, the Log reduction result (sodium salicylate 3.00) is “Insoluble”.
Regarding `C/C=C\C(C)(O)CCC=C(C)C` (centres unmarked) [(2Z)-4,8-dimethyl-2,7-nonadien-4-ol], the log reduction at 1 % is -0.1 under setting [1], greater than 5 under setting [2] and greater than 5 under setting [3].
Regarding `CC(=O)OCCC1CCCCC1` [2-cyclohexylethyl acetate], the log reduction at 1 % is 0 under setting [1], greater than 5 under setting [2] and greater than 5 under setting [3].
`CCCCCCCC1CCC(=O)O1` (centres unmarked) [5-heptyldihydro-2(3H)-furanone] displayed a log reduction at 0.5 % of 1.3. Under “no SCS (/)”, this compound yielded a log reduction at 1 % of -0.2. Further, the log reduction at 1 % under setting [4] was determined as 4.9. Where the note is “sodium salicylate 3.00”, the log reduction at 1 % is greater than 5.
For the compound `CC(C)=CCCC(C)CCO` (centres unmarked) [3,7-dimethyl-6-octen-1-ol], the log reduction at 0.5 % (read-out: Log reduction) came out at 2.8. The Log reduction result was “Insoluble” (no SCS (/)), “Insoluble” under setting [4] and “Insoluble” (sodium salicylate 3.00).
